The text below walks through data of patent US11064704B2, “Natural product formulations with improved residual insect repellent/deterrent activity” (University of Mississippi, priority 2016, dated 2021).

One test concerns Aedes aegypti females. Particulars: literature values; cited from earlier work.
For test [1], the system named is Anopheles quadrimaculatus mosquitoes. Nature of the test: in vitro A&K (Ali and Khan) repellent bioassay. Type of test: in vivo. The following applies: compared with DEET. An excerpt:
The A&K (Ali and Khan) bioassay system is based on the concept that the mosquitoes are attracted to warm temperatures, and this system uses warm temperature to serve as stimulus for landing and feeding. The details of the A&K bioassay systems are given in Ali et al. (2017).
In summary, this in vitro system consisted of a 30×30×30 cm collapsible aluminum cage (Model 1450B, BioQuip Products, 2321 Gladwick Street, Rancho Dominguez, Calif. 90220, USA) with metal screens. On one panel of the cage, metal screen was replaced with a clear acrylic transparent sheet. […] The blood box had three sides covered with acrylic sheet while the front side was open to insert the feeding device. […] The sliding door served to contain the females inside the cage when the feeding device was pulled out for loading the treatment. This door was slid open when the feeding device was pushed in during the bioassay to expose the females to the treatment.
The feeding device had one 3×4 cm rectangular reservoir that contained the feeding solution. The feeding device was connected to the water circulator. The reservoir of the feeding device with feeding solution was covered with a chemical treated collagen sheet. To observe the landing and feeding of female mosquitoes, feeding solution in the reservoir was heated to match the human body temperature using a water circulator which was set at 37° C. The feeding solution had 3-4° C. higher temperature than the solid platform, and this increased temperature of the feeding solution became a better source of attraction and preference for the mosquitoes than the other parts of the feeding device.
The rectangular reservoir of the feeding device was filled with the CPDA 1+ATP solution having a few drops of green fluorescent traceable water-soluble dye to serve as a feeding source. A test was started when the 3×4 cm marked areas of collagen were treated with the desired chemical in a volume of 50 μL/[…]. The treated collagen sheet was then secured on the reservoir using a thin layer of high vacuum grease (Dow Corning Corporation, Midland, Mich. 48686). The feeding device was then pushed into the blood box and the sliding door was opened to expose females to the treatment.
Stock solutions were made in ethanol. All the dilutions were made in EtOH and applied in a volume of 50 μL covering […] of the collagen sheet. Minimum effective dosage (MED) values in this in vitro bioassay were determined using a method described by Katritzky et al. (2010).
The cage contained 200±10, 8-18 day old female mosquitoes. The number of mosquitoes landing and biting were recorded visually for 1 minute. Three or four cages were used at a time, and one treatment was evaluated in a single cage. The minimum dose at which 2 or less mosquitoes (i.e. less than or equal to 1% of 200 females in the cage) started feeding in 1 minute was the minimum effective dose (“MED”). Continuous exposure of the mosquitoes in the cage can result in reduced landing and biting, therefore, 3-4 cages were used and only one replication was completed for each chemical in a single cage. To ensure accuracy of the treatment, rectangular areas of (3×4 cm (12 cm^2) or 7.5×4 cm (30 cm^2) were marked on the collagen that matched the measurement of the rectangular liquid reservoirs. Treatments were applied in a volume of 50 μL (12 cm^2 area) or 107 μL (30 cm^2 area). Treated collagen sheets were secured on a feeding reservoir containing CPDA-1+ATP solution using a thin layer of grease (Dow Corning Corp, Midland, Mich.). The feeding device was pushed inside the blood box and the sliding door was […] to expose the females to the treatment.
To ensure the normal activity (≥10% landing), control treatment was repeated after every 5 replications, and the bioassay was stopped if the response was less than the control. The data is presented as MED values with the mean percentage biting (±SEM) in parenthesis. […]

Consider `CCN(CC)C(=O)c1cccc(C)c1` [DEET, N,N-diethyl-meta-toluamide, reference compound], for which, in the test with Aedes aegypti females, the “MED values reported by Ali et al. (2012) and Katritzky et al. (2010)” value is 9 μg/cm^2.

On to `CC1=CC[C@]2(C)CC[C@@H](C(C)C)[C@]2(O)CC1` [carotol], for which, in test [1], the “repellent activity” value is reported as “comparable to DEET”.
